According to article PMC4443670, “The C-terminal region of the motor protein MCAK controls its structure and activity through a conformational switch” (eLife, 2015):
Entries after “also recorded” stand apart in the source; their conditions may differ. Ends that are not written are not given here.

Assays:
[1] = test system: MCAK motor domain (Cys287); assay: Covalent (disulphide) attachment of the CT domain to the motor domain; assay type: binding, human
Procedure: The GST-CTE712C and CTE712C domains were cross-linked to the motor domain by incubating them with the motor domain in a buffer containing 100 mM HEPES, pH 7.4, 150 mM NaCl but lacking DTT for 1 hr at 4°C. As a negative control the motor domain and the CTE712C domain were incubated in the identical buffer, supplemented with 5 mM DTT.

[2] = test system: taxol-stabilized microtubules; assay: Microtubule cosedimentation assay, untreated microtubules; assay type: binding; conditions: for detection of CT domain in microtubule-bound pellet / supernatant: western blot, 50 nM motor domain, with and without DTT
Procedure: Full-length MCAK complex was diluted in S buffer (50 mM NaCl, 20 mM Hepes pH 7.0) to 50 nM, in absence of nucleotide to prevent MCAK-dependent microtubule depolymerisation. To assemble an MCAK motor-CT domain complex, 50 nM of the motor domain and 100 nM of the CT domain were used. Microtubule binding assays were performed as described ([Cheeseman et al., 2006]) using equal volumes of taxol-stabilized microtubules in BRB80 and MCAK in S buffer. MCAK was quantified using anti-MCAK antibody against the C terminus of MCAK (709[…]720), generated by GL Biochem (Shangai) Ltd (China) or anti-His antibody to probe for the motor domain alone (GE Healthcare Lifesciences, UK). The data from at least three independent experiments were fitted to a modified Hill equation to determine the apparent Kd.

[3] = test system: taxol-stabilized microtubules; assay: Microtubule depolymerisation assay; assay type: biochemical
Procedure: Microtubule depolymerization assays were performed essentially as described previously ([Hertzer et al., 2006]). MCAK was diluted to 100 nM in S-buffer containing 1 mM DTT and 2 mM Mg-ATP. For depolymerization assays of the motor domain in presence of the CT domain after GST cleavage and removal, 50 nM of motor domain and 100 nM of the CT domain were used. The microtubule depolymerization assay was initiated by the addition of 2 μM taxol-stabilized microtubules to a reaction buffer containing MCAK. Reactions were incubated at room temperature with increasing times and followed by centrifugation to separate microtubules from free tubulin. The data are represented as mean ± SD from three independent experiments.

[4] = target: T1, MCAK motor domain (Homo sapiens, UniProt Q99661); assay: X-ray crystal structure of motor domain with CT peptide (PDB 4UBF)
T1 construct: His-MCAK (183–583, M) and His-MCAK (1–583, NM) were subcloned in pET3aTr vector; made in house; host or cells: E. coli BL21(DE3) Codon plus
T1 sequence (Q99661 183-583): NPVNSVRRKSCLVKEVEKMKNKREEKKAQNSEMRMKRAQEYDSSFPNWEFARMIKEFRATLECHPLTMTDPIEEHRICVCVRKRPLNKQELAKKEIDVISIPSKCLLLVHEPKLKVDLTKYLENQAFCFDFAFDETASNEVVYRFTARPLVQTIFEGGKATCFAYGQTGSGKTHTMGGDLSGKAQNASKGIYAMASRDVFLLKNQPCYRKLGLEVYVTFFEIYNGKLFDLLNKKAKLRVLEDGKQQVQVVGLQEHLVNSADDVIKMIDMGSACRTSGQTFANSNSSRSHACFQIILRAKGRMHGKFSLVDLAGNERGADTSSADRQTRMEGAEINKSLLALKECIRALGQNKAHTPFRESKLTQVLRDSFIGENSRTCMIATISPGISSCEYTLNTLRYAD
Procedure: 1 mM MCAK motor domain (PDB:2HEH, Addgene, Cambridge MA, USA) was incubated with the CT peptide 709[…]720 (China peptides Co, Ltd, China) in a ratio of 1:2 for 1 hr at 4°C before setting up crystallization trials. Elongated rectangular crystals appeared by vapor diffusion after two days in sitting drops using 24% wt/vol PEG 1500 and 20% vol/vol Glycerol as a precipitant. Crystals were grown in MRC 2 Well Crystallization Plate (Hampton Research, Aliso Viejo, CA, USA) at 19°C. Crystals were cryoprotected in a solution containing 28% wt/vol PEG 1500 and 30% vol/vol Glycerol and flash-frozen in dry liquid nitrogen.
Diffraction data were recorded at Diamond Light Source on beamline ID24 at 100 K. Data were processed using XDS package ([Kabsch, 2010]) and SCALA operated through the CCP4 suite GUI ([Collaborative Computational Project, Number 4, 1994]). The structure of the MCAK motor-tail complex was solved by molecular replacement using the program MOLREP. The MCAK motor domain structure (PDB code: 2HEH) was used as a search model. Structure refinement was performed using Refmac5 and Phenix ([Adams et al., 2010]). Figures were prepared using PyMOL ([Delano, 2002]).

[5] = test system: GST-CT domain; assay: Resin-based binding assay, CT domain self-interaction (CT domain to GST-CT); set-up: species or system human; conditions: GST-CT on glutathione agarose; GST-cleaved CT domain
From the text: Kinesin-1 is regulated through an auto-inhibitory mechanism whereby one C-terminal tail binds at the interface of the two motors, such that it creates a second point of attachment in addition to the coiled coil region. This limits the head movement of one kinesin with respect to the other ([Stock et al., 1999]; [Hackney and Stock, 2000]; [Kaan et al., 2011]). We sought to test whether the C-terminal tail domain of MCAK, which has been proposed to regulate MCAK activity ([Moore and Wordeman, 2004]), was sufficient to interact with the motor domain. To do this, we expressed the N-terminal and motor region (residues 1–583, termed NM) or the motor region of MCAK along with the neck linker region (residues 181–583, termed M) as His-tagged proteins, and the C-terminal MCAK tail (residues 700–725, termed CT domain) as a GST fusion protein ([Moore and Wordeman, 2004]; [Hertzer et al., 2006]) (Figure 1A). […] We cannot however exclude a very tight interaction between two CT domains. […]
Protein expression was induced by addition of 0.5 mM IPTG to BL21(DE3) Codon plus cells transformed with respective constructs at OD600 of 0.7–0.8 for 16 hr at 18°C. […] Protein concentrations were determined with a combination of Bradford protein assays and densitometry of Coomassie-stained gels relative to a BSA standard. […]

[6] = target: T1, MCAK motor domain; assay: Analytical size-exclusion chromatography (motor-CT complex formation); assay type: binding; conditions: Superdex 75 or Superose 6 10/300 GL; Coomassie-stained gel of fractions
From the text: Full-length MCAK is a dimer in solution ([Maney et al., 2001]). Therefore, we sought to test whether the CT domain interacts with one or two motor domains. To define the stoichiometry of this interaction, we subjected the complex to analytical size-exclusion chromatography. The motor domain alone behaves as a monomer and eluted with an apparent size of ∼45 kDa. […] Using SDS-PAGE analysis, we confirmed that the shift to a larger complex was due to the interaction of the motor domain with the CT domain (Figure 1C, bottom). […] The predicted masses for complexes of one and two CT domains bound to two motor domains are ∼94.2 and 97.7 kDa, respectively. […] Since the CT domain is unlikely to dimerize alone (Figure 1B), we conclude that the MCAK CT domain induces the dimerization of the motor domains cooperatively.
Protein expression was induced by addition of 0.5 mM IPTG to BL21(DE3) Codon plus cells transformed with respective constructs at OD600 of 0.7–0.8 for 16 hr at 18°C. Cells were lysed by sonication in lysis buffer (50 mM Hepes, pH 7.4, 200 mM NaCl, 1 mM MgCl2, 1 mM PMSF, 1 mg/ml DNaseI, 2 mg/ml lysozyme, 10 mM Imidazole) and clarified at 20,000 rpm for 1 hr at 4°C. His-tagged and GST-tagged proteins were subsequently purified using Ni-NTA–agarose beads and glutathione-sepharose beads, respectively (GE Healthcare Life Sciences, UK)) according to the manufacturer's guidelines. MCAK constructs containing the motor domain were eluted with elution buffer (50 mM Hepes, pH 7.4, 200 mM NaCl, 1 mM MgCl2, 1 mM ATP, and 300 mM imidazole). Cleavage of the GST tag was performed using the GST-3C protease overnight at 4°C. […] Protein concentrations were determined with a combination of Bradford protein assays and densitometry of Coomassie-stained gels relative to a BSA standard. […]

## CTE712C: CT domain with Glu712 mutated to cysteine, forms disulphide bridge with motor Cys287 (VIKALRLAMQLECQASRQISSKKRPQ; also: Cys712 forms disulfide with motor Cys287; UniProt Q99661 700-725, looked up, fragment E712C)
[1]; 5 mM DTT
  binding to MCAK motor, presence of DTT: did not bind the MCAK motor
[1]; motor-CTE712C domain complex, absence of DTT, Figure 6—figure supplement 1F
  non-covalently bound MCAK fraction: 45–50%
[1]; oxidizing conditions (without DTT), 100 mM HEPES pH 7.4, 150 mM NaCl, 1 hr at 4°C
  formation of covalent complex with motor: formed a covalent complex
[2]; 50 nM motor domain + CTE712C domain, oxidizing conditions (no DTT), absence of nucleotide
  reduction of fraction of MCAK motor bound to microtubules: ~50%
[2]
  detection of CT domain in microtubule-bound pellet / supernatant: did not detect
[3]; 50 nM motor domain, 100 nM CTE712C domain, 2 μM taxol-stabilized microtubules, no DTT, apparent activity
  microtubule depolymerase activity of motor with CTE712C domain, absence of DTT: displayed reduced depolymerase activity
[3]; 50 nM motor domain, 100 nM CTE712C domain, 2 μM taxol-stabilized microtubules, with DTT
  microtubule depolymerase activity of motor with CTE712C domain, presence of DTT: the depolymerase activity was similar to that of the wild type MCAK motor alone
[3]; calculated by subtracting activity of motor alone (~50% of population)
  specific depolymerase activity of covalent MCAK motor-CTE712C complex: strongly inhibits the depolymerase activity of MCAK

## 709QLEEQASRQISS720 [chemically synthesized peptide corresponding to the CT domain]
[4]; 3 Å, peptide 709QLEEQASRQISS720
  binding mode in crystal structure: a single CT domain binds to both motor domains, close to their neck linker regions

## GPLGSIKALRLAMQLEEQASRQISSKKRPQ-OH [CT domain]
[5]
  interaction of CT domain with itself: unable to interact with itself through dimerization
[6]
  binding to / co-migration with motor domain by gel filtration: bound the motor domain independently of the GST; also recorded: the elution peak shifted to an earlier fraction, suggesting dimerization of the MCAK motor
[4]; 3 Å crystal structure
  RMSD of overall structure of MCAK on CT domain binding: 0.863 Å
[2]; 100 nM full-length MCAKS715E, 2 μM taxol-stabilized microtubules, increasing free CT or CTS715E, repeated three times
  effect of free CT domain on MCAKS715E binding to microtubules: decreased the affinity of MCAKS715E for microtubules
[2]
  detection of CT domain in microtubule-bound pellet / supernatant: did not detect
